Measured values: ChEMBL document CHEMBL1795338, “Identification of pentacyclic triterpenes derivatives as potent inhibitors against glycogen phosphorylase based on 3D-QSAR studies” (Eur J Med Chem, 2011)

Target: T1, Glycogen phosphorylase, muscle form (Oryctolagus cuniculus, UniProt P00489)
T1 sequence (P00489 whole entry): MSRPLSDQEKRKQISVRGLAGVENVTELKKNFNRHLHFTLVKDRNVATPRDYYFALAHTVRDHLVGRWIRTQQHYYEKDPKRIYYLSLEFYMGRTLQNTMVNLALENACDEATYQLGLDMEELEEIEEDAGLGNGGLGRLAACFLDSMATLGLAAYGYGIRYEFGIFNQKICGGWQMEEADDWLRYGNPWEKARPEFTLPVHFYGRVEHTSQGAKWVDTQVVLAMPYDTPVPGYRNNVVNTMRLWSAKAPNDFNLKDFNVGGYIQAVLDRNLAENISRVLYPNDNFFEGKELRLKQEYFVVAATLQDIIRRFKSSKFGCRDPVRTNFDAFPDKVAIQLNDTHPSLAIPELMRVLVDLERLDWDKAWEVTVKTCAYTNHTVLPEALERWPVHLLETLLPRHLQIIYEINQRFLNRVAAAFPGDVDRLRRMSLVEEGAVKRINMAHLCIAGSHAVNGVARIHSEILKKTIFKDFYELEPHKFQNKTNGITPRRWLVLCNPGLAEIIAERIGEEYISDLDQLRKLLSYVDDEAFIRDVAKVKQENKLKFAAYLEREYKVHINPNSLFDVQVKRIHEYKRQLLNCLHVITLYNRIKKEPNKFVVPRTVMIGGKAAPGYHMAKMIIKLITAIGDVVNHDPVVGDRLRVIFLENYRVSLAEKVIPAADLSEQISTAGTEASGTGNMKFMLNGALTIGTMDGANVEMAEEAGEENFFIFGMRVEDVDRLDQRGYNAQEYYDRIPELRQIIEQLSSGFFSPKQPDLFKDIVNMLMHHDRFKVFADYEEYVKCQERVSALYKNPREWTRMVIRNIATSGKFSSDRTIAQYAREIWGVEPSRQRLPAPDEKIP
Assay: Inhibition of rabbit muscle glycogen phosphorylase A assessed as release of phosphate from glucose-1-phosphate after 25 mins by microplate reader based method

| SMILES | IC50 [µM] |
| --- | --- |
| CCn1cc2c(n1)C(C)(C)[C@@H]1CC[C@]3(C)[C@H](CC=C4[C@@H]5CC(C)(C)CC[C@]5(C(=O)OCc5ccccc5)CC[C@]43C)[C@@]1(C)C2 | 64.6 |
| CC1(C)CC[C@]2(C(=O)OCc3ccccc3)CC[C@]3(C)C(=CC[C@@H]4[C@@]5(C)CC[C@H](OC(=O)c6ccc(N)cc6)C(C)(C)[C@@H]5CC[C@]43C)[C@@H]2C1 | 2.13 |
| C[C@H]1[C@H](C)CC[C@]2(C(=O)O)CC[C@]3(C)C(=CC[C@@H]4[C@@]5(C)C[C@@H](OC(=O)c6ccccc6)[C@H](O)C(C)(C)[C@@H]5CC[C@]43C)[C@H]12 | 5.1 |
| CC1(C)CC[C@]2(C(=O)O)CC[C@]3(C)C(=CC[C@@H]4[C@@]5(C)CC/C(=N\O)C(C)(C)[C@@H]5CC[C@]43C)[C@@H]2C1 | 225 |
| C[C@H]1[C@H](C)CC[C@]2(C(=O)OCc3ccccc3)CC[C@]3(C)C(=CC[C@@H]4[C@@]5(C)C[C@@H]6O[C@@H]6C(C)(C)[C@@H]5CC[C@]43C)[C@H]12 | 69.5 |
| CCOC(=O)CCCOC(=O)[C@]12CCC(C)(C)C[C@H]1C1=CC[C@@H]3[C@@]4(C)CC[C@H](O)C(C)(C)[C@@H]4CC[C@@]3(C)[C@]1(C)CC2 | 76.7 |
| CC1(C)CC[C@]2(C(=O)O)CC[C@]3(C)C(=CC[C@@H]4[C@@]5(C)Cc6cnn(-c7ccc(Cl)cc7)c6C(C)(C)[C@@H]5CC[C@]43C)[C@@H]2C1 | 242 |
| CC(=O)NCCNCCNC(=O)[C@]12CCC(C)(C)C[C@H]1C1=CC[C@@H]3[C@@]4(C)CC[C@H](OC(C)=O)C(C)(C)[C@@H]4CC[C@@]3(C)[C@]1(C)CC2 | 3.25 |
| CC1(C)CC[C@]2(C(=O)O)CC[C@]3(C)C(=CC[C@@H]4[C@@]5(C)Cc6nccnc6C(C)(C)[C@@H]5CC[C@]43C)[C@@H]2C1 | 25.1 |
| CC1(C)CC[C@]2(C(=O)OCc3ccccc3)CC[C@]3(C)C(=CC[C@@H]4[C@@]5(C)C/C(=N\OCc6ccccc6)C(=O)C(C)(C)[C@@H]5CC[C@]43C)[C@@H]2C1 | 61.3 |
| CC1(C)CC[C@]2(C(=O)O)CC[C@]3(C)C(=CC[C@@H]4[C@@]5(C)C[C@H](O)[C@H](O)[C@@](C)(CO)[C@@H]5CC[C@]43C)[C@@H]2C1 | 67.8 |
| CC(=O)O[C@@H]1C[C@]2(C)[C@H]3CC=C4[C@@H]5[C@@H](C)[C@H](C)CC[C@]5(C(=O)O)CC[C@@]4(C)[C@]3(C)CC[C@H]2C(C)(C)[C@H]1OC(C)=O | 35 |
| CCCCCC(=O)O[C@@H]1C[C@]2(C)[C@H]3CC=C4[C@@H]5[C@@H](C)[C@H](C)CC[C@]5(C(=O)O)CC[C@@]4(C)[C@]3(C)CC[C@H]2C(C)(C)[C@H]1O | 3.26 |
| C[C@H]1[C@H](C)CC[C@]2(C(=O)O)CC[C@]3(C)C(=CC[C@@H]4[C@@]5(C)Cc6nonc6C(C)(C)[C@@H]5CC[C@]43C)[C@H]12 | 66.3 |
| CC1(C)CC[C@]2(C(=O)OC3CC3)CC[C@]3(C)C(=CC[C@@H]4[C@@]5(C)C[C@H](O)CC(C)(C)[C@@H]5CC[C@]43C)[C@@H]2C1 | 23.1 |
| COC(=O)[C@]12CC[C@@H](C)[C@H](C)[C@H]1C1=CC[C@@H]3[C@@]4(C)C[C@@H](O)[C@H](O)C(C)(C)[C@@H]4CC[C@@]3(C)[C@]1(C)CC2 [COROSOLIC ACID METHYL ESTER] | 33.7 |
| CCOC(=O)Cn1cc2c(n1)C(C)(C)[C@@H]1CC[C@]3(C)[C@H](CC=C4[C@@H]5CC(C)(C)CC[C@]5(C(=O)OCc5ccccc5)CC[C@]43C)[C@@]1(C)C2 | 111 |
| CCOC(=O)COC(=O)[C@]12CC[C@@H](C)[C@H](C)[C@H]1C1=CC[C@@H]3[C@@]4(C)CC[C@H](O)C(C)(C)[C@@H]4CC[C@@]3(C)[C@]1(C)CC2 | 4.1 |
| CC1(C)CC[C@]2(C(=O)O)CC[C@]3(C)[C@H]([C@@H](O)C[C@@H]4[C@@]5(C)CC[C@H](O)C(C)(C)[C@@H]5CC[C@]43C)[C@@H]2C1 | 3.07 |
| CC1(C)CC[C@]2(C(=O)OCc3ccccc3)CC[C@]3(C)C(=CC[C@@H]4[C@@]5(C)CC(=N\O)/C(=N\O)C(C)(C)[C@@H]5CC[C@]43C)[C@@H]2C1 | 22.3 |
| CC1(C)CC[C@]2(C(=O)OCc3ccccc3)CC[C@]3(C)C(=CC[C@@H]4[C@@]5(C)CC/C(=N\O)C(C)(C)[C@@H]5CC[C@]43C)[C@@H]2C1 | 20.8 |
| CC1(C)CC[C@]2(COC(=O)CCC(=O)O)CC[C@]3(C)C(=CC[C@@H]4[C@@]5(C)Cc6c[nH]nc6C(C)(C)[C@@H]5CC[C@]43C)[C@@H]2C1 | 24.7 |

| SMILES | IC50 [µM] |
| --- | --- |
| CCCC(=O)O[C@@H]1C[C@]2(C)[C@H]3CC=C4[C@@H]5[C@@H](C)[C@H](C)CC[C@]5(C(=O)O)CC[C@@]4(C)[C@]3(C)CC[C@H]2C(C)(C)[C@H]1OC(=O)CCC | 78.7 |
| CC1(C)CC[C@]2(C(=O)O)CC[C@]3(C)C(=CC[C@@H]4[C@@]5(C)C[C@@H](O)[C@H](O)[C@@](C)(CO)[C@@H]5CC[C@]43C)[C@@H]2C1 [ARJUNOLIC ACID] | 103 |
| CC1(C)CC[C@]2(C(=O)O)CC[C@]3(C)C(=CC[C@@H]4[C@@]5(C)Cc6cnn(-c7ccccc7)c6C(C)(C)[C@@H]5CC[C@]43C)[C@@H]2C1 | 35.1 |
| C[C@H]1[C@H](C)CC[C@]2(C(=O)OCc3ccccc3)CC[C@]3(C)C(=CC[C@@H]4[C@@]5(C)C=C(O)C(=O)C(C)(C)[C@@H]5CC[C@]43C)[C@H]12 | 7.31 |
| C[C@H]1[C@H](C)CC[C@]2(C(=O)OCCN3CCCCC3)CC[C@]3(C)C(=CC[C@@H]4[C@@]5(C)C[C@@H](O)[C@H](O)[C@@](C)(CO)[C@@H]5CC[C@]43C)[C@H]12 | 132 |
| CC(=O)O[C@H]1CC[C@]2(C)[C@H]3CC=C4[C@@H]5[C@@H](C)[C@H](C)CC[C@]5(C(=O)O)CC[C@@]4(C)[C@]3(C)CC[C@H]2C1(C)C [O-ACETYLURSOLIC ACID] | 131 |
| CC1(C)CC[C@]2(C(=O)OCc3ccccc3)CC[C@]3(C)C(=CC[C@@H]4[C@@]5(C)Cc6cn(Cc7ccccc7)nc6C(C)(C)[C@@H]5CC[C@]43C)[C@@H]2C1 | 126 |
| CC1(C)CC[C@]2(C(=O)OCc3ccccc3)CC[C@]3(C)C(=CC[C@@H]4[C@@]5(C)C[C@H](O)[C@@H](O)C(C)(C)[C@@H]5CC[C@]43C)[C@@H]2C1 | 6.59 |
| CC1(C)CC[C@]2(C(=O)O)CC[C@]3(C)C(=CC[C@@H]4[C@@]5(C)C[C@@H](O)CC(C)(C)[C@@H]5CC[C@]43C)[C@@H]2C1 | 16.1 |
| C[C@H]1[C@H](C)CC[C@]2(C(=O)OCc3ccccc3)CC[C@]3(C)C(=CC[C@@H]4[C@@]5(C)C[C@H](O)CC(C)(C)[C@@H]5CC[C@]43C)[C@H]12 | 22.3 |
| COc1ccc(-n2ncc3c2C(C)(C)[C@@H]2CC[C@]4(C)[C@H](CC=C5[C@@H]6CC(C)(C)CC[C@]6(C(=O)OCc6ccccc6)CC[C@]54C)[C@@]2(C)C3)cc1 | 13.1 |
| CC1(C)CC[C@]2(C(=O)O)CC[C@]3(C)C(=CC[C@@H]4[C@@]5(C)CC[C@H](OC(=O)Cn6cc(COC(=O)Cc7ccccc7)nn6)C(C)(C)[C@@H]5CC[C@]43C)[C@@H]2C1 | 30.9 |
| CC(C)c1ccc(-n2ncc3c2C(C)(C)[C@@H]2CC[C@]4(C)[C@H](CC=C5[C@@H]6CC(C)(C)CC[C@]6(C(=O)O)CC[C@]54C)[C@@]2(C)C3)cc1 | 69.6 |
| CC1(C)CC[C@]2(C(=O)O)CC[C@]3(C)C(=CC[C@@H]4[C@@]5(C)Cc6cn(S(C)(=O)=O)nc6C(C)(C)[C@@H]5CC[C@]43C)[C@@H]2C1 | 49.3 |
| CC1(C)CC[C@]2(C(=O)O)CC[C@]3(C)C(=CC[C@@H]4[C@@]5(C)Cc6cnn(-c7cc(F)cc(F)c7)c6C(C)(C)[C@@H]5CC[C@]43C)[C@@H]2C1 | 46.9 |
| C[C@H]1[C@H](C)CC[C@]2(C(=O)OC3CC3)CC[C@]3(C)C(=CC[C@@H]4[C@@]5(C)C[C@@H](O)[C@H](O)C(C)(C)[C@@H]5CC[C@]43C)[C@H]12 | 91.2 |
| COC(=O)[C@@]1(C)[C@@H]2CC[C@]3(C)[C@H](CC=C4[C@@H]5[C@@H](C)[C@H](C)CC[C@]5(C(=O)O)CC[C@]43C)[C@@]2(C)C[C@@H](OC(C)=O)[C@@H]1OC(C)=O | 33 |
| CC1(C)CC[C@]2(C(=O)O)CC[C@]3(C)C(=CC[C@@H]4[C@@]5(C)Cc6cn[nH]c6C(C)(C)[C@@H]5CC[C@]43C)[C@@H]2C1 | 7.8 |
| CCCCOC(=O)[C@]12CC[C@@H](C)[C@H](C)[C@H]1C1=CC[C@@H]3[C@@]4(C)C[C@@H](O)[C@H](O)C(C)(C)[C@@H]4CC[C@@]3(C)[C@]1(C)CC2 | 92.1 |
| CC(=O)O[C@@H]1C[C@]2(C)[C@H]3CC=C4[C@@H]5CC(C)(C)CC[C@]5(C(=O)O)CC[C@@]4(C)[C@]3(C)CC[C@H]2C(C)(C)[C@H]1OC(C)=O | 13.3 |
| CC1(C)CC[C@]2(C(=O)OCc3ccccc3)CC[C@]3(C)C(=CC[C@@H]4[C@@]5(C)Cc6cn[nH]c6C(C)(C)[C@@H]5CC[C@]43C)[C@@H]2C1 | 8.1 |
| CC1(C)CC[C@]2(C(=O)OCc3ccccc3)CC[C@]3(C)C(=CC[C@@H]4[C@@]5(C)CC[C@H](OC(=O)CN=[N+]=[N-])C(C)(C)[C@@H]5CC[C@]43C)[C@@H]2C1 | 12.7 |
